Laboratory results from the NIST ThermoML archive (doi:10.1021/acs.jced.5b00197).

Test: xn = mol fraction of the nth substance listed
Details: 96.64 kPa, Liquid, mechanical oscillator

CC(=O)O [acetic acid] + O
mass density [kg/m3]
Details	293.15 K	298.15 K	303.15 K
x1 = 0.0322	1013.1	1010.07	1007.37
x1 = 0.0697	1029.11	1024.31	1021.16
x1 = 0.114	1040.03	1036.43	1032.93
x1 = 0.167	1049.79	1045.44	1039.59
x1 = 0.231	1057.69	1053.12	1048.56
x1 = 0.31	1064.29	1059.45	1054.48
x1 = 0.412	1068.57	1063.31	1058.16
x1 = 0.545	1068.93	1063.47	1058.01
x1 = 0.629	1067.42	1061.15	1057.17
x1 = 0.729	1062.82	1058.08	1053.26
x1 = 0.85	1059.62	1053.73	1047.95
x1 = 1	1049.63	1043.57	1037.64

CC(=O)O [acetic acid] + Cc1ccccc1
mass density [kg/m3]
Details	293.15 K	298.15 K	303.15 K
x1 = 0.146	878.94	873.65	868.47
x1 = 0.277	894.11	888.81	883.38
x1 = 0.397	907.9	902.58	897.1
x1 = 0.506	924.08	918.49	912.96
x1 = 0.605	940.43	934.75	929.15
x1 = 0.697	960	954.12	948.31
x1 = 0.782	978.4	972.48	966.6
x1 = 0.859	1000.2	994.34	988.34
x1 = 0.897	1017.74	1011.75	1005.81
x1 = 0.932	1027.84	1021.82	1015.9
x1 = 0.967	1038.11	1032.17	1026.28
x1 = 1	1049.63	1043.57	1037.64
